Experimental data published in a melting point compilation (Tetko et al.; mined from patent text by program, amines drawn as free bases though some values may be those of a salt).

Row | SMILES | melting point [°C]
1 | CCOc1ccc2nc(Cl)c(C=O)cc2c1 | 163 to 164
2 | COc1ccc2oc3ccc([N+](=O)[O-])cc3c2c1C(=O)Nc1ccncc1 | 222
3 | Cc1csc(C(=O)OC(C)C)c1S(=O)(=O)Cl | 58
4 | CCN(c1ccccc1)c1ccc(C(=O)c2ccccc2)cc1N | 82 to 82.5
5 | CCCCCCNC(=O)OC1CCN(C(=O)Oc2ccc(Oc3ccc(OC)cc3)cc2)CC1 | 91 to 93
6 | Cc1c2c(c(-c3ccc(F)cc3)c3c4c(ccc13)OCO4)CNC2=O | 293 to 295
7 | NC1(c2ccccc2)C(=O)Nc2ccc(Cl)cc21 (stereo unspecified) | 230 to 235
8 | O=[N+]([O-])c1ccc2[nH]cc(C3=CCNCC3)c2c1 | 250
9 | O=C(O)CN1C(=O)OC[C@@H]1c1ccccc1 | 106 to 108
10 | O=C(O)c1ccccc1N1CCN(CC(O)COc2ccccc2)CC1 (stereo unspecified) | 235 to 237
11 | NS(=O)(=O)c1nc2ccc(OC(=O)Cc3ccccc3)cc2s1 | 177 to 179
12 | Cc1nn(-c2ccc(Cl)cc2)c(C)c1C(=O)N[C@H](C)[C@](O)(Cn1cncn1)c1ccc(F)cc1F | 144 to 145
13 | c1ccc(N2CCN(Cc3n[nH]c4ccccc34)CC2)cc1 | 196 to 197
14 | O=C(O)c1cccnc1N1CCN(CCOC2c3ccccc3CSc3ccccc32)CC1 (stereo unspecified) | 217 to 218
15 | CN1CCC(c2c(O)cc(O)c3c(=O)cc(Sc4ccccc4Cl)oc23)C(O)C1 (stereo unspecified) | 110
16 | COc1cc(-c2ccccc2)c(OCC(=O)O)c(-c2ccccc2)c1 | 143 to 145
17 | CCc1[nH]nc(C(=O)NC2CCCC2)c1[N+](=O)[O-] | 156 to 157
18 | COc1cccc2c(-c3ccnc(N[C@H]4CC[C@H](O)CC4)n3)n[nH]c12 | 243 to 245
19 | COC(=O)c1ccc(C(=O)NCC(C)C)c([N+](=O)[O-])c1 | 90 to 91
20 | N#CN1CCN(c2nn(-c3ccccc3)c3cc(F)ccc23)CC1 | 172 to 174
21 | NS(=O)(=O)c1ncccc1SCCCF | 85 to 86
22 | O=C1NC(=O)C(Cc2ccc(OCCNc3ncccn3)cc2)S1 (stereo unspecified) | 173
23 | CN(Cc1ccccc1)c1nc(N2CCC(N(C)C)CC2)nc2c(N3CCOCC3)ncnc12 | 122
24 | CCCSc1sc(C(N)=O)c2c1-c1nn(S(C)(=O)=O)cc1CC2 | 191 to 192
25 | O=S1CCON=C1c1ccc(Cl)s1 (stereo unspecified) | 102
26 | O=S(=O)(c1ccccc1)c1cc(Br)nc(Br)c1 | 134 to 135

Row | SMILES | melting point [°C]
27 | COc1ccc(CC(=O)O)cc1C(C)C | 94 to 96
28 | CC1=CC(Cl)C(Cl)(c2cc(C)no2)C=C1C(=O)O (stereo unspecified) | 212 to 213
29 | COc1cccc(COc2cccc3c2CN(C2CCC(=O)NC2=O)C3=O)c1 (stereo unspecified) | 225 to 227
30 | CCC1(F)CN(C2CCCC2)c2nc(Nc3ccc(C(=O)NC4CCN(C)CC4)cc3OC)ncc2N(C)C1=O (stereo unspecified) | 149 to 153
31 | COc1cccc(C(F)(F)F)c1C(N)=O | 178 to 181
32 | O=C1C(c2cc3c(cc2O)OCCO3)c2c(F)cccc2N1C(c1ccccc1)c1ccccc1 (stereo unspecified) | 115 to 118
33 | CC(=O)c1oc2ccc(Br)cc2c1NC(=O)c1cnoc1C | 206 to 208
34 | CC(C)(C)C(=O)c1ccc(C(=O)N(C(=O)c2ccc(C(=O)C(C)(C)C)cc2)C(=O)c2ccccc2C(=O)C(C)(C)C)cc1 | 185 to 188
35 | O=C1CCC(N2Cc3c(OCc4ccc5nccn5c4)cccc3C2=O)C(=O)N1 (stereo unspecified) | 270 to 272
36 | Cc1cccnc1S(=O)(=O)NC(C)(C)C | 107 to 110
37 | Cn1cc(CO)c(=O)c2cc(F)ccc21 | 209 to 212
38 | COc1cccc2c1CN(Nc1ccncc1)CC2 | 170 to 171
39 | COc1ccc2c(c1)Cc1cc(=O)[nH]nc1-2 | 280 to 284
40 | CC(=O)N1CCN(c2nc(Cl)ccc2[N+](=O)[O-])CC1 | 137 to 138
41 | CCCCCCCC(=O)Nc1ccc(O)c(C(=O)O)c1 | 200 to 204
42 | CC(Cc1ccc(OCc2ccccc2)cc1)NC(=O)CC(c1ccccc1)c1ccccc1 (stereo unspecified) | 121 to 125
43 | COc1ccc(C2=NN(SC(C)C)C(=O)C2(SC(C)C)SC(C)C)cc1 | 52 to 54
44 | O=C1Cc2c(cccc2-c2ccccc2)N1 | 192 to 194
45 | CCN1CC=C(c2ccc(Nc3ncc4ccc(-c5ccccc5N(C)S(C)(=O)=O)n4n3)c(OC)c2)CC1 | 121 to 123
46 | CCOC(=O)COc1cccc2c1CCC(Br)C2=O (stereo unspecified) | 74 to 75
47 | CC(C)(C)CC(C)(C)c1ccc(Oc2cc3nc(C(C)(C)C)oc3cc2[N+](=O)[O-])cc1 | 77 to 78
48 | CN1C(=O)C(NC(=O)Nc2cccc(Br)c2)N(C)C1=O (stereo unspecified) | 173 to 182
49 | Cc1nn(-c2ccc(C(F)(F)F)cn2)cc1COc1cccc(CC(=O)O)c1 | 142 to 143
50 | Cc1ccccc1C(=O)CN1C(=O)C(NC(=O)Nc2cccc(CC(O)=S)c2)CN(C(=O)C(C)(C)C)c2ccccc21 (stereo unspecified) | 127 to 130
51 | CCOC(=O)c1c(-c2ccncc2)[nH]c(-c2ccccc2)c1C | 179 to 181
52 | c1ccc2c(c1)Sc1ccccc1N2C1CN2CCC1CC2 (stereo unspecified) | 160 to 162

Row | SMILES | melting point [°C]
53 | O=C(O)/C=C/c1ccnc(-c2nc(=O)c3ccccc3s2)c1 | 284 to 285
54 | Nc1ncc(-c2cccc3ccccc23)o1 | 155 to 162
55 | O=Cc1c(N2CCNCC2)n(-c2ccccc2)c2ccccc12 | 175
56 | CC(=O)Oc1ccc(C=O)cc1Cl | 33 to 35
57 | c1cn(-c2cc(-n3ccnc3)ncn2)cn1 | 243 to 244
58 | CCOC(=O)c1c(SC2CCCCC2=O)nc2cc(Cl)c(F)cc2c1O (stereo unspecified) | 252 to 257
59 | CCN1C(=O)C(C)(C)C(=O)N(C)c2cc(OCCCn3c(=O)c(-c4ccccc4)c(Cl)c4ccccc43)ccc21 | 122 to 128
60 | N#Cc1ccc2c(c1)CN1C(=Nc3cccnc3)SC[C@@H]1C2 | 172
61 | Cc1nc2c(O[C@@H]3c4ccccc4CC[C@H]3O)cccn2c1CC#N (relative stereo) | 154 to 155
62 | NC(=O)c1c(Cl)c(-c2ccccc2)n2c1CN(C(=O)Nc1ccc(C(=O)O)cc1)CC2 | 281 to 283
63 | CCOC(=O)c1ccc(OCC2CCN(c3ccc(OC)nn3)CC2)cc1 | 147
64 | COc1cc(-c2nc3sccn3c2-c2ccnc(NC3CCN(S(=O)(=O)C4CC4)CC3)n2)ccc1F | 146 to 148
65 | Cn1c(CC(=O)O)ccc1C(=O)c1ccc(C(F)(F)F)cc1 | 152 to 154
66 | FC(F)(F)Cn1cc(C#Cc2cccc(Br)c2)cn1 | 107 to 109
67 | O=c1[nH]c2ccc(C(O)CCN3CCC(Cc4ccccc4)CC3)cc2[nH]1 (stereo unspecified) | 240 to 244
68 | CO[C@@H]1[C@@H](OC)[C@H](C)O[C@@H](OC(=S)Nc2ccc(-c3nccn3-c3ccc(OC(F)(F)F)cc3)cc2)[C@@H]1OC | 129
69 | CCc1nn2c(-c3cccc(OC)c3)ccnc2c1C#N | 118 to 119
70 | Cn1cnnc1C(N)(c1ccc(Cl)cc1)c1ccc2c(c1)c(-c1cccc(Cl)c1)nc1nnnn12 (stereo unspecified) | 220
71 | c1ccc(C2(Cn3cncn3)OCCO2)cc1 | 127
72 | COc1ccc(N2N=C3c4cc(C)sc4S(=O)(=O)CCC3CC2=O)cc1 (stereo unspecified) | 190 to 191
73 | CCCC(SCC(N)=O)c1ccc2c(c1)OCO2 (stereo unspecified) | 91 to 92
74 | Cc1ccc2c(c1)c(-c1ccc(F)cc1)cn2N | 116 to 120
75 | NC(=O)c1cscc1Br | 108 to 110
76 | Cc1oc(-c2ccc3ccccc3c2)nc1COc1ccc(CCCC#N)cc1 | 149 to 151
77 | NCc1cccc(-n2cnc3cnc4ccc(Cl)cc4c32)c1 | 148 to 149
78 | CC(C)c1cc(Cl)nc(C(C)C)c1N | 53 to 56

Row | SMILES | melting point [°C]
79 | Cc1oc2ccc(N)cc2c(=O)c1C | 202 to 204
80 | O=C(NCc1ccccn1)c1cc(OCC(F)(F)F)ccc1OCc1ccccc1 | 115 to 116
81 | COc1ccc2c(c1)C(Cc1ccnc(F)c1)(Cc1ccnc(F)c1)c1ccccc1C2=O | 155 to 157
82 | COCc1c(OC)cc(Cc2cnc(N)nc2N)cc1OC | 221 to 223
83 | O=C(O)c1ccc(OCC2CN(C(=O)c3ccccc3)C(=O)O2)cc1 (stereo unspecified) | 219 to 221
84 | CCOc1ccc(C(=O)NCc2ccc3c(c2)C(=O)N(C2(C)CCC(=O)NC2=O)C3=O)cn1 (stereo unspecified) | 174 to 176
85 | CCC(O)(c1ccccc1)c1cccc(N)c1 (stereo unspecified) | 92 to 93
86 | CCOC(=O)N1CCOC(c2ccccc2)(c2ccccc2)CC1 | 122 to 123
87 | N#CC(c1ccccc1)c1cn[nH]c1 (racemic) | 124 to 127
88 | Fc1ccc(C(OCCCN2CCN(C(c3ccccc3)c3ccccc3)CC2)c2ccc(F)cc2)cc1 | 78 to 79
89 | O=S(=O)(CCl)c1ncc(Cl)cn1 | 100
90 | Cc1cc(C)c(=O)n(C(C(=O)O)c2ccc3c(c2)OCO3)n1 (stereo unspecified) | 165
91 | COc1ccc(C(C)N(C)CCCOc2ccc(S(=O)(=O)c3c(C(C)C)cn4ccccc34)cc2)cc1 (stereo unspecified) | 140 to 144
92 | CC(C)(C)c1cc(SC2CC(=O)N(c3ccccc3)C2=O)cc(C(C)(C)C)c1O (stereo unspecified) | 134 to 137
93 | COC(=O)CCCCCNC(=O)c1csc(NC(=O)NCc2ccccc2)n1 | 140
94 | COC(=O)c1cccn2c(I)cnc12 | 99 to 110
95 | CCOc1ccc(C(F)(F)F)cc1-c1cccn2nc(Nc3ccc4c(c3)CCN(CCS(C)(=O)=O)CC4)nc12 | 105 to 109
96 | CC(C)CC[C@H](O)[C@H](CC1CCCCC1)NC(=O)[C@H](Cc1c[nH]cn1)NC(=O)OC(C)(C)C | 96 to 100
97 | O=S(=O)(c1ccccc1)N1CC2CCC(C1)O2 | 166 to 168
98 | O=S1(=O)CCN2C=CC=C(c3ccc(Oc4ccccc4)cc3)C2=N1 | 251 to 252
99 | CCOC(=O)CCN(CNC(=O)OC(C)(C)C)C(=O)Cn1cc(C)c(=O)[nH]c1=O | 174 to 175
100 | Cc1cccc(SCCC(=O)O)c1 | 73 to 75.5
101 | O=C(NCc1ccc(Cl)cc1)c1cnc2c(O)cccc2c1O | 319 to 320
